#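 Step 1: Grow cells in 96-well plates. Step 2: Expose to compound for 48 hours at 5 concentrations. Step 3: Interpolate endpoints linearly; if unreached, use highest concentration. TGI: concentration producing complete growth inhibition.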
# Assays:
# Assay in all cases: NCI anticancer screen, dose series, 48 h
# SF-268 CNS = system: SF-268 CNS
# CCRF-CEM leukemia = system: CCRF-CEM leukemia
# A498 renal = system: A498 renal
# K-562 leukemia = system: K-562 leukemia
# KM12 colon = system: KM12 colon
# OVCAR-8 ovarian = system: OVCAR-8 ovarian
# NCI-H522 lung = system: NCI-H522 lung
# RPMI-8226 leukemia = system: RPMI-8226 leukemia
# SK-MEL-5 melanoma = system: SK-MEL-5 melanoma
# NCI-H226 lung = system: NCI-H226 lung
# MOLT-4 leukemia = system: MOLT-4 leukemia
# M14 melanoma = system: M14 melanoma
# OVCAR-5 ovarian = system: OVCAR-5 ovarian
# HCT-116 colon = system: HCT-116 colon
# BT-549 breast = system: BT-549 breast
# CAKI-1 renal = system: CAKI-1 renal
SMILES,TGI (SF-268 CNS),TGI (CCRF-CEM leukemia),TGI (A498 renal),TGI (K-562 leukemia),TGI (KM12 colon),TGI (OVCAR-8 ovarian),TGI (NCI-H522 lung),TGI (RPMI-8226 leukemia),TGI (SK-MEL-5 melanoma),TGI (NCI-H226 lung),TGI (MOLT-4 leukemia),TGI (M14 melanoma),TGI (OVCAR-5 ovarian),TGI (HCT-116 colon),TGI (BT-549 breast),TGI (CAKI-1 renal)
COc1ccc(C2C(C#N)=C(S)N(C3OC(CO)C(O)C(O)C3O)C(C)=C2C(C)=O)cc1 (stereo unspecified),> 100 µM,> 100 µM,> 100 µM,> 100 µM,> 100 µM,> 100 µM,> 100 µM,> 100 µM,> 100 µM,> 100 µM,> 100 µM,> 100 µM,> 100 µM,> 100 µM,> 100 µM,–
CN(/N=C/c1ccc(Cl)cc1)C1=NCCCCN1,> 100 µM,> 100 µM,> 100 µM,> 100 µM,> 100 µM,> 100 µM,> 100 µM,> 100 µM,> 100 µM,> 100 µM,> 100 µM,57.4 µM,> 100 µM,> 100 µM,> 100 µM,> 100 µM
O=c1c2cc(I)ccc2nc(SCc2nnco2)n1Cc1ccccc1,> 100 µM,62.9 µM,> 100 µM,–,> 100 µM,> 100 µM,> 100 µM,> 100 µM,> 100 µM,> 100 µM,47.4 µM,> 100 µM,> 100 µM,> 100 µM,> 100 µM,> 100 µM
COC12C=CC(CC1)C(C)(C)C2OS(C)(=O)=O (stereo unspecified),> 100 µM,> 100 µM,> 100 µM,> 100 µM,> 100 µM,> 100 µM,> 100 µM,> 100 µM,> 100 µM,> 100 µM,> 100 µM,> 100 µM,> 100 µM,> 100 µM,> 100 µM,> 100 µM
CC(=O)c1[nH]c(Nc2ccc(C)cc2)c(C(=S)Nc2ccccc2)c1N,30.2 µM,62.1 µM,28.8 µM,72.2 µM,34.8 µM,39.4 µM,32.5 µM,–,31 µM,32.4 µM,> 100 µM,36.4 µM,> 100 µM,35.4 µM,31.6 µM,35.6 µM
S=C(N/N=C(\C(=N/NC(=S)N1CCCCC1)c1ccccn1)c1ccccn1)N1CCCCC1,> 100 µM,57.4 µM,90.1 µM,> 100 µM,> 100 µM,> 100 µM,> 100 µM,> 100 µM,> 100 µM,> 100 µM,> 100 µM,50.3 µM,> 100 µM,> 100 µM,> 100 µM,> 100 µM
CN(C)C=NCC(O)c1ccccc1 (stereo unspecified),> 100 µM,> 100 µM,> 100 µM,> 100 µM,> 100 µM,–,> 100 µM,> 100 µM,> 100 µM,> 100 µM,> 100 µM,> 100 µM,> 100 µM,> 100 µM,> 100 µM,> 100 µM
CC(C)C1=C(Cc2ccccc2)C(=O)O/C1=C\c1ccc(O)c(Cl)c1,30.4 µM,46.8 µM,31.4 µM,38.8 µM,32 µM,33.1 µM,–,28.1 µM,31.2 µM,30.6 µM,28.1 µM,31.3 µM,32.3 µM,28.8 µM,36.7 µM,32.9 µM
Cc1c2cccc-2c(OCCOC(=O)n2ccnc2)cc2c1[nH]c1ccccc12,5.8 µM,–,21 µM,21.7 µM,4.65 µM,5.22 µM,4.66 µM,9.9 µM,5.68 µM,8.13 µM,25.2 µM,10.5 µM,7.51 µM,10.3 µM,9.06 µM,17.8 µM
CCn1c(=O)c2c3ccc(OC)cc3[nH]c2c2ccc(OC)cc21,> 100 µM,> 100 µM,> 100 µM,> 100 µM,> 100 µM,> 100 µM,> 100 µM,–,> 100 µM,> 100 µM,> 100 µM,> 100 µM,> 100 µM,> 100 µM,> 100 µM,> 100 µM
N#Cc1ccc2[nH]c3c(c2c1)CC(=O)Nc1ccccc1-3,> 100 µM,> 100 µM,> 100 µM,> 100 µM,–,> 100 µM,> 100 µM,> 100 µM,> 100 µM,> 100 µM,> 100 µM,> 100 µM,> 100 µM,> 100 µM,> 100 µM,> 100 µM
CC(=O)O[C@H]1C[C@](C)(O)[C@@]23CC([C@@H](OC(=O)C(C)(C)O)[C@@H](OC(C)=O)C2(COC(=O)c2ccccc2)[C@H]1OC(C)=O)C(C)(C)O3 (stereo partly specified),> 100 µM,> 100 µM,> 100 µM,> 100 µM,> 100 µM,> 100 µM,> 100 µM,> 100 µM,> 100 µM,–,> 100 µM,> 100 µM,> 100 µM,> 100 µM,> 100 µM,> 100 µM
O=C1c2cccnc2-c2nccc3c2c1nc1ccc(Br)cc13,0.143 µM,0.133 µM,0.223 µM,0.331 µM,0.207 µM,0.223 µM,0.128 µM,–,0.0887 µM,0.0639 µM,0.569 µM,0.0773 µM,0.324 µM,0.0324 µM,0.176 µM,0.156 µM
Cn1c(COC(=O)NC2CCCCC2)c(COC(=O)NC2CCCCC2)c2ccc3cc(C=O)ccc3c21,> 100 µM,> 100 µM,> 100 µM,> 100 µM,> 100 µM,> 100 µM,–,–,> 100 µM,> 100 µM,> 100 µM,> 100 µM,> 100 µM,> 100 µM,> 100 µM,> 100 µM
OC1(c2ccc(Cl)cc2)c2c(c3ccccc3c3ccccc23)C2=NCCN21 (stereo unspecified),24.9 µM,> 100 µM,43.7 µM,> 100 µM,47.8 µM,28.5 µM,–,> 100 µM,> 100 µM,–,> 100 µM,27 µM,46 µM,25.7 µM,33.7 µM,68.8 µM
C[C@@]12C[C@@H](c3ccccc3O1)N1Cc3ccccc3CSC1=N2,> 100 µM,–,> 100 µM,> 100 µM,> 100 µM,> 100 µM,> 100 µM,> 100 µM,> 100 µM,> 100 µM,> 100 µM,> 100 µM,> 100 µM,> 100 µM,> 100 µM,> 100 µM
COc1cc([C@@H]2c3cc4c(cc3[C@@H](c3c(O)cc(O)c5c3O[C@H](c3ccc(O)c(O)c3)[C@H](OC(=O)c3cc(O)c(O)c(O)c3)C5)[C@H]3COC(=O)[C@H]23)OCO4)cc(OC)c1O,> 100 µM,59 µM,> 100 µM,–,> 100 µM,> 100 µM,> 100 µM,> 100 µM,78.4 µM,–,> 100 µM,64.2 µM,> 100 µM,> 100 µM,> 100 µM,> 100 µM
CC(C)(C)OC(=O)n1c(Cl)c(C=O)c2ccccc21,36.2 µM,79.4 µM,> 100 µM,> 100 µM,39.2 µM,> 100 µM,> 100 µM,44.3 µM,> 100 µM,–,> 100 µM,82.9 µM,72.3 µM,–,52.5 µM,35.4 µM
O=C(/C=C/c1ccccc1)Oc1cccc(Br)c1,> 100 µM,–,> 100 µM,–,> 100 µM,> 100 µM,29.2 µM,40.2 µM,> 100 µM,> 100 µM,29.8 µM,> 100 µM,> 100 µM,> 100 µM,> 100 µM,> 100 µM
COc1ccc(N2C(=O)C3c4[nH]c5ccccc5c4C4c5ccccc5CC4C3C2=O)cc1 (stereo unspecified),> 100 µM,> 100 µM,> 100 µM,> 100 µM,> 100 µM,> 100 µM,> 100 µM,–,–,> 100 µM,> 100 µM,> 100 µM,> 100 µM,> 100 µM,> 100 µM,> 100 µM
CC(=O)OCC1OC(n2c(N)c(C#N)c(-c3cccc(Cl)c3)c(C#N)c2=S)C(OC(C)=O)C(OC(C)=O)C1OC(C)=O (stereo unspecified),39.4 µM,> 100 µM,45.5 µM,> 100 µM,38.9 µM,39.9 µM,–,39.7 µM,30.3 µM,–,51.5 µM,57.1 µM,> 100 µM,94 µM,70.8 µM,> 100 µM
Cc1cn([C@@H]2C[C@H](CO)[C@@H]2O)c(=O)[nH]c1=O,> 100 µM,> 100 µM,> 100 µM,> 100 µM,> 100 µM,> 100 µM,> 100 µM,> 100 µM,> 100 µM,> 100 µM,> 100 µM,–,> 100 µM,> 100 µM,> 100 µM,> 100 µM
C[N+]1([O-])[C@H]2CC(OC(=O)[C@H](CO)c3ccccc3)C[C@H]1[C@H]1O[C@H]12 (stereo partly specified),–,> 100 µM,> 100 µM,> 100 µM,> 100 µM,> 100 µM,> 100 µM,> 100 µM,> 100 µM,> 100 µM,> 100 µM,> 100 µM,> 100 µM,> 100 µM,> 100 µM,> 100 µM
